{
  "source": "patent US12679860B2",
  "about": "“C-terminal HSP90 inhibitors” (UNIVERSITY OF KANSAS, priority 2012, dated 2026)",
  "tested_on": "embryonic dorsal root ganglion (DRG) sensory neuron cultures",
  "test": "Glucotoxicity assay: cell viability (calcein AM) of DRG sensory neurons under glucose-induced toxicity",
  "type": "cell-based, Sprague Dawley rat",
  "conditions": "for viability at 1 µM / EC50: Rattus norvegicus, Neuron; for viability at 1 µM: glucose + DMSO was 54% ± 2; for EC50: 0.1-1000 nM novologue overnight, then 4 hrs of hyperglycemia, mean±SEM (n=3-8), read-out: EC50 for protection against glucose-induced toxicity",
  "description": "DRG sensory neurons were incubated in the absence or presence of 0.1-1000 nM of the indicated novologue overnight and then subjected to 4 hrs of hyperglycemia.\nThe ganglia were sedimented at 1,000×g for 5 min, resuspended in growth media [phenol red free Neurobasal medium (Gibco, Grand Island, NY) containing 25 mM glucose, 1X B-27 additive, 50 ng/ml NGF (Harlan Bioscience, Indianapolis, IN), 4 mM glutamine, 100 U/mL penicillin and 100 μg/mL streptomycin] and triturated with a fire-polished glass pipette. The cells were cultured on collagen-coated (0.1 mg/mL collagen followed by overnight air drying in a laminar flow hood) black-walled 96-well plates (Corning Incorporated Corning, NY) at a seeding density of 2-3×10^4 cells per well. DRG neurons were re-fed the next day with fresh growth media containing 40 μM fluorodeoxyuridine and 10 μM cytosine β-D-arabinoside (both from Sigma Aldrich, St. Louis, MO) for 2 days to remove proliferating cells. Experiments were performed on DRG neurons on the third day in culture after placing the cells in fresh growth medium. […]\nDRG neurons were incubated overnight with the test compounds in the presence of Neurobasal medium, 50 ng/ml NGF and antibiotics only. In order to monitor the efficiency of the compounds in protecting DRG neurons against glucotoxicity, Calcein AM (Invitrogen, Carlsbad, CA) was utilized to measure cell viability. Hydrolysis of calcein AM to a fluorescent product can only occur in live cells. Excess glucose was added to the cultures for 4 hrs and cell viability was measured by incubating the cells with 2 μM calcein AM for 30 min in the dark at 37° C. Fluorescence was then measured using a plate reader with excitation and emission wavelengths set to 485 nm and 520 nm, respectively. The arbitrary fluorescence readings were normalized to the total amount of protein from each respective well of the neuronal cultures. The protein concentrations in each well were determined using the DC protein assay (Bio-Rad). Significant differences in the efficacy of the novologues for increasing cell viability were determined using a Kruskal-Wallis non-parametric ANOVA and Dunn's post-test.",
  "key": {"[1]": {"conditions": "Table 2 cyclohexene analogues, 1 μM novologue + 20 mM excess glucose"}, "[2]": {"conditions": "Table 1, 1 μM of each novologue + 20 mM excess glucose"}, "[3]": {"conditions": "1 μM novologue + 20 mM excess glucose"}},
  "data": [
    {"compound": "CO[C@@H]1[C@@H](O)[C@@H](O)[C@H](Oc2ccc(C3CC=CCC3NC(C)=O)c(-c3cccc(F)c3)c2)OC1(C)C", "note": "(mixture of isomers) [20a, N-(4′-(((3R,4S,5R)-3,4-dihydroxy-5-methoxy-6,6-dimethyltetrahydro-2H-pyran-2-yl)oxy)-3″-fluoro-1,2,3,6-tetrahydro-[1,1′: 2′,1″-terphenyl]-2-yl)acetamide]", "values": [
      {"measurement": "viability at 1 µM", "setting": "[1]", "result": 78, "unit": "%"}
    ]},
    {"compound": "CO[C@@H]1[C@@H](O)[C@@H](O)[C@H](Oc2ccc(C3CC=CCC3NC(C)=O)c(-c3cccc(C(F)(F)F)c3)c2)OC1(C)C", "note": "(mixture of isomers) [20b, N-(4′-(((3R,4S,5R)-3,4-dihydroxy-5-methoxy-6,6-dimethyltetrahydro-2H-pyran-2-yl)oxy)-3″-(trifluoromethyl)-1,2,3,6-tetrahydro-[1,1′: 2′,1″-terphenyl]-2-yl) acetamide]", "values": [
      {"measurement": "viability at 1 µM", "setting": "[1]", "result": 69, "unit": "%"}
    ]},
    {"compound": "CO[C@@H]1[C@@H](O)[C@@H](O)C(Oc2ccc(CCNC(C)=O)c(-c3ccccc3)c2)OC1(C)C", "note": "(stereo partly drawn) [11a, N-(2-(5-(((3R,4S,5R)-3,4-dihydroxy-5-methoxy-6,6-dimethyltetrahydro-2H-pyran-2-yl)oxy)-[1,1′-biphenyl]-2-yl)ethyl)acetamide]", "values": [
      {"measurement": "viability at 1 µM", "setting": "[2]", "result": 76, "unit": "%"}
    ]},
    {"compound": "CO[C@@H]1[C@@H](O)[C@@H](O)C(Oc2ccc(CCNC(C)=O)c(-c3ccc(F)cc3)c2)OC1(C)C", "note": "(stereo partly drawn) [11c, N-(2-(5-(((3R,4S,5R)-3,4-dihydroxy-5-methoxy-6,6-dimethyltetrahydro-2H-pyran-2-yl)oxy)-4′-fluoro-[1,1′-biphenyl]-2-yl)ethyl)acetamide]", "values": [
      {"measurement": "protection against glucose-induced toxicity (in words)", "setting": "[3]", "result": "showed significant protection against glucose-induced cell death"},
      {"measurement": "viability at 1 µM", "setting": "[2]", "result": 75, "unit": "%"}
    ]},
    {"compound": "CO[C@@H]1[C@@H](O)[C@@H](O)C(Oc2ccc(CCNC(C)=O)c(-c3ccccc3Cl)c2)OC1(C)C", "note": "(stereo partly drawn) [11d, N-(2-(2′-chloro-5-(((3R,4S,5R)-3,4-dihydroxy-5-methoxy-6,6-dimethyltetrahydro-2H-pyran-2-yl)oxy)-[1,1′-biphenyl]-2-yl)ethyl)acetamide]", "values": [
      {"measurement": "protection against glucose-induced toxicity (in words)", "setting": "[3]", "result": "showed significant protection against glucose-induced cell death"},
      {"measurement": "viability at 1 µM", "setting": "[2]", "result": 71, "unit": "%"}
    ]},
    {"compound": "CO[C@@H]1[C@@H](O)[C@@H](O)C(Oc2ccc(CCNC(C)=O)c(-c3cccc(Cl)c3)c2)OC1(C)C", "note": "(stereo partly drawn) [11e, N-(2-(3′-chloro-5-(((3R,4S,5R)-3,4-dihydroxy-5-methoxy-6,6-dimethyltetrahydro-2H-pyran-2-yl)oxy)-[1,1′-biphenyl]-2-yl)ethyl)acetamide]", "values": [
      {"measurement": "protection against glucose-induced toxicity (in words)", "setting": "[3]", "result": "showed significant protection against glucotoxicity"},
      {"measurement": "viability at 1 µM", "setting": "[2]", "result": 90, "unit": "%"}
    ]},
    {"compound": "CO[C@@H]1[C@@H](O)[C@@H](O)C(Oc2ccc(CCNC(C)=O)c(-c3cccc(C(F)(F)F)c3)c2)OC1(C)C", "note": "(stereo partly drawn) [11f, N-(2-(5-(((3R,4S,5R)-3,4-dihydroxy-5-methoxy-6,6-dimethyltetrahydro-2H-pyran-2-yl)oxy)-3′-(trifluoromethyl)-[1,1′-biphenyl]-2-yl)ethyl)acetamide]", "values": [
      {"measurement": "protection against glucose-induced toxicity (in words)", "setting": "[3]", "result": "showed significant protection against glucotoxicity"},
      {"measurement": "EC50", "result": "188 ± 43.5", "unit": "nM"},
      {"measurement": "viability at 1 µM", "setting": "[2]", "result": 83, "unit": "%"}
    ]},
    {"compound": "CO[C@@H]1[C@@H](O)[C@@H](O)C(Oc2ccc(CCNC(C)=O)c(-c3ccc(C(F)(F)F)cc3)c2)OC1(C)C", "note": "(stereo partly drawn) [11g, N-(2-(5-(((3R,4S,5R)-3,4-dihydroxy-5-methoxy-6,6-dimethyltetrahydro-2H-pyran-2-yl)oxy)-4′-(trifluoromethyl)-[1,1′-biphenyl]-2-yl)ethyl)acetamide]", "values": [
      {"measurement": "protection against glucose-induced toxicity (in words)", "setting": "[3]", "result": "showed significant protection against glucose-induced cell death"},
      {"measurement": "viability at 1 µM", "setting": "[2]", "result": 74, "unit": "%"}
    ]},
    {"compound": "CO[C@@H]1[C@@H](O)[C@@H](O)C(Oc2ccc(CCNC(C)=O)c(-c3ccccc3SC)c2)OC1(C)C", "note": "(stereo partly drawn) [11h, N-(2-(5-(((3R,4S,5R)-3,4-dihydroxy-5-methoxy-6,6-dimethyltetrahydro-2H-pyran-2-yl)oxy)-2′-(methylthio)-[1,1′-biphenyl]-2-yl)ethyl)acetamide]", "values": [
      {"measurement": "EC50", "result": "384 ± 108", "unit": "nM"},
      {"measurement": "viability at 1 µM", "setting": "[2]", "result": 83, "unit": "%"},
      {"measurement": "EC50 fold greater than KU-32", "setting": "protection against glucose-induced toxicity", "result": "approximately 1.6 fold"}
    ]},
    {"compound": "COc1ccccc1-c1cc(OC2OC(C)(C)[C@H](OC)[C@@H](O)[C@H]2O)ccc1CCNC(C)=O", "note": "(stereo partly drawn) [11i, N-(2-(5-(((3R,4S,5R)-3,4-dihydroxy-5-methoxy-6,6-dimethyltetrahydro-2H-pyran-2-yl)oxy)-2′-methoxy-[1,1′-biphenyl]-2-yl)ethyl)acetamide]", "values": [
      {"measurement": "viability at 1 µM", "setting": "[2]", "result": 92, "unit": "%"}
    ]},
    {"compound": "COc1cccc(-c2cc(OC3OC(C)(C)[C@H](OC)[C@@H](O)[C@H]3O)ccc2CCNC(C)=O)c1", "note": "(stereo partly drawn) [11j, N-(2-(5-(((3R,4S,5R)-3,4-dihydroxy-5-methoxy-6,6-dimethyltetrahydro-2H-pyran-2-yl)oxy)-3′-methoxy-[1,1′-biphenyl]-2-yl)ethyl)acetamide]", "values": [
      {"measurement": "viability at 1 µM", "setting": "[2]", "result": 78, "unit": "%"}
    ]},
    {"compound": "CO[C@@H]1[C@@H](O)[C@@H](O)C(Oc2ccc(CCNC(C)=O)c(-c3cccc(C)c3)c2)OC1(C)C", "note": "(stereo partly drawn) [11k, N-(2-(5-(((3R,4S,5R)-3,4-dihydroxy-5-methoxy-6,6-dimethyltetrahydro-2H-pyran-2-yl)oxy)-3′-methyl-[1,1′-biphenyl]-2-yl)ethyl)acetamide]", "values": [
      {"measurement": "viability at 1 µM", "setting": "[2]", "result": 82, "unit": "%"}
    ]},
    {"compound": "CO[C@@H]1[C@@H](O)[C@@H](O)C(Oc2ccc(CCNC(C)=O)c(-c3cccc(CN4CCOCC4)c3)c2)OC1(C)C", "note": "(stereo partly drawn) [11l, N-(2-(5-(((3R,4S,5R)-3,4-dihydroxy-5-methoxy-6,6-dimethyltetrahydro-2H-pyran-2-yl)oxy)-3′-(morpholinomethyl)-[1,1′-biphenyl]-2-yl)ethyl)acetamide]", "values": [
      {"measurement": "viability at 1 µM", "setting": "[2]", "result": 83, "unit": "%"}
    ]},
    {"compound": "CO[C@@H]1[C@@H](O)[C@@H](O)C(Oc2ccc(CCNC(C)=O)c(-c3ccc(O)cc3)c2)OC1(C)C", "note": "(stereo partly drawn) [11m, N-(2-(5-(((3R,4S,5R)-3,4-dihydroxy-5-methoxy-6,6-dimethyltetrahydro-2H-pyran-2-yl)oxy)-4′-hydroxy-[1,1′-biphenyl]-2-yl)ethyl)acetamide]", "values": [
      {"measurement": "viability at 1 µM", "setting": "[2]", "result": 67, "unit": "%"}
    ]},
    {"compound": "CO[C@@H]1[C@@H](O)[C@@H](O)C(Oc2ccc(CCNC(C)=O)c(-c3cccnc3)c2)OC1(C)C", "note": "(stereo partly drawn) [11o, N-(4-(((3R,4S,5R)-3,4-dihydroxy-5-methoxy-6,6-dimethyltetrahydro-2H-pyran-2-yl)oxy)-2-(pyridin-3-yl)phenethyl)acetamide]", "values": [
      {"measurement": "protection against glucose-induced toxicity (in words)", "setting": "[3]", "result": "unable to protect against glucose-induce toxicity"},
      {"measurement": "viability at 1 µM", "setting": "[2]", "result": 61, "unit": "%"}
    ]},
    {"compound": "CO[C@@H]1[C@@H](O)[C@@H](O)C(Oc2ccc(CCNC(C)=O)c(-c3ccncc3)c2)OC1(C)C", "note": "(stereo partly drawn) [11p, N-(4-(((3R,4S,5R)-3,4-dihydroxy-5-methoxy-6,6-dimethyltetrahydro-2H-pyran-2-yl)oxy)-2-(pyridin-4-yl)phenethyl)acetamide]", "values": [
      {"measurement": "viability at 1 µM", "setting": "[2]", "result": 81, "unit": "%"}
    ]}
  ]
}
